Test results: patent publication US9427442B2, “Fluoroalkyl and fluorocycloalkyl 1,4-benzodiazepinone compounds” (BRISTOL-MYERS SQUIBB COMPANY, priority 2012, dated 2016)

Experiments:
[1] = Human metabolic stability half-life assay; type: in vitro ADME; details: human liver microsomes, NADPH, 0.5 μM compound, 45-minute time course; for half-life at 0.5 µM: pH 7.4, read-out: HLM (t1/2, min)
Description: Metabolic Stability Half-Life Panel

human Notch 3 = assay: Notch-CBF1 Transactivation Assay (Notch 3); type: cell-based; details: read-out: Notch 3 (IC50); HeLa cells transfected with truncated Notch 3 and CBF1 luciferase reporter; 18 hours; average of N experiments
Description: (§1) Notch-CBF1 Transactivation Assay
(§2) The Notch-CBF1 (C-promoter binding factor I) cell based transactivation assay is based on the ability of the released Notch intracellular domain fragments (NICDs) to function as transcription factors in conjunction with CBF1 and other nuclear factors. Luciferase assays were used to measure the antagonism of Notch-CBF1 transcriptional activity. HeLa cervical cancer cells are transiently co-transfected with pCDNA3.1/Hygro plasmids containing truncated Notch 1, Notch 2, Notch 3, or Notch 4 receptors and a PGL3 luciferase reporter vector containing 4 copies of CBF1 binding site. The cells were then tested for Notch-CBF1 activity in the absence or presence of test compounds. HeLa cells, maintained in DMEM (high glucose with HEPES), 1× glutamine/penicillin/streptomycin and 10% Fetal Bovine serum, were transiently transfected in a T175 Flask (4.5×10^6 cells/flask) using the Monster Transfection Kit (Minis #MIR2906) according to manufacturers specifications. Table 5 denotes respective DNA quantity for the transfections.
(§3) Assay media (5 μL) containing test compounds in final concentrations ranging from 5 μM to 8.4×10^−5 μM (3 fold serial dilutions) were added to the cells and the cell plates were then incubated for 18 hours at 37° C. and 5% CO2. Control wells contained DMSO vehicle (total counts) or 0.5 μM of an in-house small molecule inhibitor (background counts). Duplicates were used for each sample. Luciferase activity was measured after a 20-minute incubation with 50 μl STEADY-GLO® luciferase reagents according to manufacturer's specifications (Promega, Cat. #E2550) and analyzed by Envision plate reader (PerkinElmer, Boston, Mass.).
(§4) The antagonist effect of compounds was expressed as 100×[1−(average sample−average background)/(average total−average background)] where sample is the luciferase activity in the presence of test compound, background is equal to the luciferase activity in the presence of the small molecule inhibitor control and the total is signal induced in DMSO wells.

human Notch 1 = assay: Notch-CBF1 Transactivation Assay (Notch 1); type: cell-based; details: read-out: Notch 1 (IC50); HeLa cells transfected with truncated Notch 1 and CBF1 luciferase reporter; 18 hours; average of N experiments
Description: as §1, §2, §3, §4

Compound	HLM (t1/2, min) [1] [min]	IC50 (human Notch 3) [nM]	IC50 (human Notch 1) [nM]	half-life at 0.5 µM [1] [min]
CCC[C@H](C(N)=O)[C@@H](CC(C)C)C(=O)N[C@H]1N=C(c2ccccc2)c2ccccc2N(C)C1=O [Comparative Compound 26, reference compound]	8	–	–	–
C=CC[C@H](C(N)=O)[C@@H](CC(C)C)C(=O)N[C@H]1N=C(c2ccccc2)c2cc(Cl)ccc2N(C)C1=O [Comparative Compound 27, reference compound]	6	–	–	–
CCCC[C@H](C(N)=O)[C@@H](CC(C)C)C(=O)N[C@H]1N=C(c2ccc(Cl)cc2)c2ccccc2N(C)C1=O [Comparative Compound 28, reference compound]	6	–	–	–
C=CC[C@H](C(N)=O)[C@@H](CC(C)C)C(=O)N[C@H]1N=C(c2ccccc2)c2ccccc2N(CCC)C1=O [Comparative Compound 29, reference compound]	3	–	–	–
COc1cccc2c1NC(=O)[C@@H](NC(=O)[C@H](CCC(F)(F)F)[C@@H](C(N)=O)C1CCC(F)(F)CC1)N=C2c1ccccc1 [Example 2, (2R,3S)-3-(4,4-Difluorocyclohexyl)-N-((3S)-9-methoxy-2-oxo-5-phenyl-2,3-dihydro-1H-1,4-benzodiazepin-3-yl)-2-(3,3,3-trifluoropropyl)succinamide]	–	6	7	43
NC(=O)[C@@H](C1CCC(F)(F)CC1)[C@@H](CCC(F)(F)F)C(=O)N[C@H]1N=C(c2cccc(F)c2)c2cccc(OC3CC3)c2NC1=O [Example 3, (2R,3S)—N-((3S)-9-(Cyclopropyloxy)-5-(3-fluorophenyl)-2-oxo-2,3-dihydro-1H-1,4-benzodiazepin-3-yl)-3-(4,4-difluorocyclohexyl)-2-(3,3,3-trifluoropropyl)succinamide]	–	8.9	4.2	80
NC(=O)[C@@H](C1CCC(C(F)(F)F)CC1)[C@@H](CCC(F)(F)F)C(=O)N[C@H]1N=C(c2ccccc2)c2cccc(Cl)c2NC1=O (stereo partly drawn) [Example 4, (2R,3S)—N-((3S)-9-Chloro-2-oxo-5-phenyl-2,3-dihydro-1H-1,4-benzodiazepin-3-yl)-3-(4-(trifluoromethyl)cyclohexyl)-2-(3,3,3-trifluoropropyl)succinamide]	–	21.2	11.9	> 120
NC(=O)[C@@H](C1CCC(F)(F)CC1)[C@@H](CCC(F)(F)F)C(=O)N[C@H]1N=C(c2ccccc2)c2cccc(Cl)c2NC1=O [Example 5, (2R,3S)—N-((3S)-9-Chloro-2-oxo-5-phenyl-2,3-dihydro-1H-1,4-benzodiazepin-3-yl)-3-(4,4-difluorocyclohexyl)-2-(3,3,3-trifluoropropyl)succinamide]	–	7.3	4.4	72
NC(=O)[C@@H](C1CC(F)(F)C1)[C@@H](CCC(F)(F)F)C(=O)N[C@H]1N=C(c2ccccc2)c2ccccc2NC1=O [Example 6]	–	18.9	14	> 120
NC(=O)[C@@H](CC1CC(F)(F)C1)[C@@H](CCC(F)(F)F)C(=O)N[C@H]1N=C(c2ccccc2)c2cccc(OC3CC3)c2NC1=O [Example 7, (2R,3S)—N-((3S)-9-(Cyclopropyloxy)-2-oxo-5-phenyl-2,3-dihydro-1H-1,4-benzodiazepin-3-yl)-3-((3,3-difluorocyclobutyl)methyl)-2-(3,3,3-trifluoropropyl)succinamide]	–	2.1	3.9	> 120
COc1cccc2c1NC(=O)[C@@H](NC(=O)[C@H](CCC(F)(F)F)[C@H](CC1CC(F)(F)C1)C(N)=O)N=C2c1ccccc1 [Example 8, (2R,3S)-3-((3,3-Difluorocyclobutyl)methyl)-N-((3S)-9-methoxy-2-oxo-5-phenyl-2,3-dihydro-1H-1,4-benzodiazepin-3-yl)-2-(3,3,3-trifluoropropyl)succinamide]	–	4	2.9	58
Cc1cccc2c1NC(=O)[C@@H](NC(=O)[C@H](CCC(F)(F)F)[C@H](CC1CC(F)(F)C1)C(N)=O)N=C2c1cccc(F)c1 [Example 9, (2R,3S)-3-((3,3-Difluorocyclobutyl)methyl)-N-((3S)-5-(3-fluorophenyl)-9-methyl-2-oxo-2,3-dihydro-1H-1,4-benzodiazepin-3-yl)-2-(3,3,3-trifluoropropyl)succinamide]	–	3.2	3.5	91
Cc1cccc(C2=N[C@H](NC(=O)[C@H](CCC(F)(F)F)[C@H](CC3CC(F)(F)C3)C(N)=O)C(=O)Nc3c(Cl)cccc32)c1 [Example 10, (2R,3S)—N-((3S)-9-Chloro-5-(3-methylphenyl)-2-oxo-2,3-dihydro-1H-1,4-benzodiazepin-3-yl)-3-((3,3-difluorocyclobutyl)methyl)-2-(3,3,3-trifluoropropyl)succinamide]	–	4.4	1.7	69
Cc1cccc(C2=N[C@H](NC(=O)[C@H](CCC(F)(F)F)[C@H](CC3CC(F)(F)C3)C(N)=O)C(=O)Nc3c(F)cccc32)c1 [Example 11, (2R,3S)-3-((3,3-Difluorocyclobutyl)methyl)-N-((3S)-9-fluoro-5-(3-methylphenyl)-2-oxo-2,3-dihydro-1H-1,4-benzodiazepin-3-yl)-2-(3,3,3-trifluoropropyl)succinamide]	–	2.2	2.1	46
NC(=O)[C@@H](CC1CC(F)(F)C1)[C@@H](CCC(F)(F)F)C(=O)N[C@H]1N=C(c2ccccc2)c2cccc(C3CC3)c2NC1=O [Example 12, (2R,3S)—N-((3S)-9-Cyclopropyl-2-oxo-5-phenyl-2,3-dihydro-1H-1,4-benzodiazepin-3-yl)-3-((3,3-difluorocyclobutyl)methyl)-2-(3,3,3-trifluoropropyl)succinamide]	–	4.3	5.6	41
NC(=O)[C@@H](CC1CC(F)(F)C1)[C@@H](CCC(F)(F)F)C(=O)N[C@H]1N=C(c2ccccc2)c2cccc(Cl)c2NC1=O [Example 13, (2R,3S)—N-((3S)-9-Chloro-2-oxo-5-phenyl-2,3-dihydro-1H-1,4-benzodiazepin-3-yl)-3-((3,3-difluorocyclobutyl)methyl)-2-(3,3,3-trifluoropropyl)succinamide]	–	2.4	2.8	> 120
NC(=O)[C@@H](CC1CC(F)(F)C1)[C@@H](CCC(F)(F)F)C(=O)N[C@H]1N=C(c2ccccc2)c2cccc(F)c2NC1=O [Example 14, (2R,3S)-3-((3,3-Difluorocyclobutyl)methyl)-N-((3S)-9-fluoro-2-oxo-5-phenyl-2,3-dihydro-1H-1,4-benzodiazepin-3-yl)-2-(3,3,3-trifluoropropyl)succinamide]	–	1.4	4.5	> 120
NC(=O)[C@@H](CC1CC(F)(F)C1)[C@@H](CCC(F)(F)F)C(=O)N[C@H]1N=C(c2ccccc2)c2ccccc2NC1=O [Example 15, (2R,3S)-3-((3,3-Difluorocyclobutyl)methyl)-N-((3S)-2-oxo-5-phenyl-2,3-dihydro-1H-1,4-benzodiazepin-3-yl)-2-(3,3,3-trifluoropropyl)succinamide]	–	3.8	4.4	35
COc1cccc2c1NC(=O)[C@@H](NC(=O)[C@H](CCC(F)(F)F)[C@H](CCCF)C(N)=O)N=C2c1ccccc1 [Example 16, (2R,3S)-3-(3-Fluoropropyl)-N-((3S)-9-methoxy-2-oxo-5-phenyl-2,3-dihydro-1H-1,4-benzodiazepin-3-yl)-2-(3,3,3-trifluoropropyl)succinamide]	–	15.4	7	88
COc1ccc2c(c1)NC(=O)[C@@H](NC(=O)[C@H](CCC(F)(F)F)[C@H](CCCF)C(N)=O)N=C2c1ccccc1 [Example 17, (2R,3S)-3-(3-Fluoropropyl)-N-((3S)-8-methoxy-2-oxo-5-phenyl-2,3-dihydro-1H-1,4-benzodiazepin-3-yl)-2-(3,3,3-trifluoropropyl)succinamide]	–	11	5.8	> 120
CC(F)(F)C[C@H](C(N)=O)[C@@H](CCC(F)(F)F)C(=O)N[C@H]1N=C(c2ccccc2)c2ccccc2NC1=O [Example 18, (2R,3S)-3-(2,2-Difluoropropyl)-N-((3S)-2-oxo-5-phenyl-2,3-dihydro-1H-1,4-benzodiazepin-3-yl)-2-(3,3,3-trifluoropropyl)succinamide]	–	10.8	2.7	> 120
